Experimental data as given in patent US7932270B2 (Cytokinetics, Inc., priority 2006, dated 2011).

These molecules were tested against T1, chicken gizzard smooth muscle myosin subfragment-1 chemically crosslinked to cardiac or skeletal actin (Gallus gallus, UniProt P10587) (assay: Smooth muscle myosin ATPase dose response assay (pyruvate kinase/horseradish peroxidase/pyruvate oxidase-coupled, amplex red fluorescence)). Conditions: read-out: IC50 Arithmetic Mean.
T1 construct: chicken gizzard smooth muscle myosin subfragment-1; from tissue; host or cells: chicken gizzard
T1 sequence (P02607 2-151): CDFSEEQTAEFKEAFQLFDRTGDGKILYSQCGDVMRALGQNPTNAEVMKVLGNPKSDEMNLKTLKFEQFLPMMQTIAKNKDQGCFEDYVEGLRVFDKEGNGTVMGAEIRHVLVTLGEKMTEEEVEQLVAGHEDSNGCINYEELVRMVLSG
T1 sequence (P10587 84-789): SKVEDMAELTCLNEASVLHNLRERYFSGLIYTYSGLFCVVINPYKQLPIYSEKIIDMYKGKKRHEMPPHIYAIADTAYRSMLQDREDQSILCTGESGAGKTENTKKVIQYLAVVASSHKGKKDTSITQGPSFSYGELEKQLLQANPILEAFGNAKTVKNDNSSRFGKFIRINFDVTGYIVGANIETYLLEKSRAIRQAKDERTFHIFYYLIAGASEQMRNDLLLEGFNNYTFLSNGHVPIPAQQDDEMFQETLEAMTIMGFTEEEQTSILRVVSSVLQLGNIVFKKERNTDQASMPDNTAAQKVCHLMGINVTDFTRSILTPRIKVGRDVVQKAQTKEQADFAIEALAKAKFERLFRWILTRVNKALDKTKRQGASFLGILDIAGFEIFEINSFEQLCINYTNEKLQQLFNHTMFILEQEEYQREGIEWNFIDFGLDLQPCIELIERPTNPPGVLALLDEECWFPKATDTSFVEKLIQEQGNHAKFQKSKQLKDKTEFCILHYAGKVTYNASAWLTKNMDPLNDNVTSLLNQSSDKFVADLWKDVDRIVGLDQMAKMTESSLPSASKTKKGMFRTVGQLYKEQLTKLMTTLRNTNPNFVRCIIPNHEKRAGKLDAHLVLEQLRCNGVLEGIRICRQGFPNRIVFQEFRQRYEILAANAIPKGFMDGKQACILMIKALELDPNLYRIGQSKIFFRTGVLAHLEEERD
Assay type: biochemical
Outline: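 Readout is amplex red signal from coupled ATPase of actin-crosslinked gizzard myosin S1 (0.15 mM ATP, 12 mM K-PIPES, pH 7.00). IC50 is the half-maximal activity point of a four-parameter Hill fit.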
In the case of `N#Cc1ccccc1-c1ccc(C(=O)NC[C@H]2CCC(=O)N2CCCCN)c(NCCc2cccc(F)c2)n1` [N-{[(2R)-1-(4-aminobutyl)-5-oxopyrrolidin-2-yl]methyl}(6-(2-cyanophenyl)-2-{[2-(3-fluorophenyl)ethyl]amino}(3-pyridyl))carboxamide], the IC50 is reported as 51.7 nM. With `N#Cc1ccccc1-c1ccc(C(=O)NC[C@H]2CCCC(=O)N2CCCCN)c(NCCc2cccc(F)c2)n1` [N-{[(2R)-1-(4-aminobutyl)-6-oxo(2-piperidyl)]methyl}(6-(2-cyanophenyl)-2-{[2-(3-fluorophenyl)ethyl]amino}(3-pyridyl))carboxamide] the IC50 was 32 nM. `N#Cc1ccccc1-c1ccc(C(=O)NC[C@H]2CCN2C(=O)CCCO)c(NCCc2cccc(F)c2)n1` [N-{[(2R)-1-(4-hydroxybutanoyl)azetidin-2-yl]methyl}(6-(2-cyanophenyl)-2-{[2-(3-fluorophenyl)ethyl]amino}(3-pyridyl))carboxamide] showed an IC50 of 60 nM. `Cn1cc(-c2ccc(C(=O)NC[C@H]3CCCN3C(=O)CCCO)c(NCCc3cccc(F)c3)n2)cn1` [N-{[(2R)-1-(4-hydroxybutanoyl)pyrrolidin-2-yl]methyl}(2-{[2-(3-fluorophenyl)ethyl]amino}-6-(1-methylpyrazol-4-yl)(3-pyridyl))carboxamide] was tested, and the IC50 was 1460 nM. `O=C(NC[C@H]1CCCN1C(=O)CCCO)c1ccc(-c2cn[nH]c2)nc1NCCc1cccc(F)c1` [N-{[(2R)-1-(4-hydroxybutanoyl)pyrrolidin-2-yl]methyl}(2-{[2-(3-fluorophenyl)ethyl]amino}-6-pyrazol-4-yl(3-pyridyl))carboxamide] was tested, and the IC50 was 963 nM. With `Cn1cc(-c2nc(NCCc3cccc(F)c3)c(C(=O)NC[C@H]3CCCN3C(=O)CCCO)cc2F)cn1` [N-{[(2R)-1-(4-hydroxybutanoyl)pyrrolidin-2-yl]methyl}(5-fluoro-2-{[2-(3-fluorophenyl)ethyl]amino}-6-(1-methylpyrazol-4-yl)(3-pyridyl))carboxamide] the IC50 was 245 nM. `N#Cc1ccccc1-c1ccc(C(=O)NC[C@H]2CCCN2C(=O)CCCO)c(NCCc2cccc(F)c2)n1` [N-{[(2R)-1-(4-hydroxybutanoyl)pyrrolidin-2-yl]methyl}(6-(2-cyanophenyl)-2-{[2-(3-fluorophenyl)ethyl]amino}(3-pyridyl))carboxamide] was tested, and the IC50 was 85 nM. Work on `N#Cc1ccccc1-c1ccc(C(=O)NC[C@H]2CCCN2C(=O)CCCCN)c(NCCc2cccc(F)c2)n1` [N-{[(2R)-1-(5-aminopentanoyl)pyrrolidin-2-yl]methyl}(6-(2-cyanophenyl)-2-{[2-(3-fluorophenyl)ethyl]amino}(3-pyridyl))carboxamide] yielded an IC50 of 99 nM. Work on `N#Cc1ccccc1-c1ccc(C(=O)NC[C@H]2CCC(=O)N2CCCCCN)c(NCCc2cccc(F)c2)n1` [N-{[(2R)-1-(5-aminopentyl)-5-oxopyrrolidin-2-yl]methyl}(6-(2-cyanophenyl)-2-{[2-(3-fluorophenyl)ethyl]amino}(3-pyridyl))carboxamide] yielded an IC50 of 39 nM. `N#Cc1ccccc1-c1ccc(C(=O)NC[C@H]2CCCCN2C(=O)[C@H](N)CN)c(NCCc2cccc(F)c2)n1` [N-{[(2R)-1-((2R)-2,3-diaminopropanoyl)(2-piperidyl)]methyl}(6-(2-cyanophenyl)-2-{[2-(3-fluorophenyl)ethyl]amino}(3-pyridyl))carboxamide] showed an IC50 of 161 nM. Molecule `N#Cc1ccccc1-c1ccc(C(=O)NC[C@H]2CCCCN2C(=O)[C@H](N)CCN)c(NCCc2cccc(F)c2)n1` [N-{[(2R)-1-((2R)-2,4-diaminobutanoyl)(2-piperidyl)]methyl}(6-(2-cyanophenyl)-2-{[2-(3-fluorophenyl)ethyl]amino}(3-pyridyl))carboxamide] has an IC50 of 399 nM. `N#Cc1ccccc1-c1ccc(C(=O)NC[C@H]2CCCCN2C(=O)[C@H](N)CCCN)c(NCCc2cccc(F)c2)n1` [N-{[(2R)-1-((2R)-2,5-diaminopentanoyl)(2-piperidyl)]methyl}(6-(2-cyanophenyl)-2-{[2-(3-fluorophenyl)ethyl]amino}(3-pyridyl))carboxamide] was tested, and the IC50 was 456 nM. For `N#Cc1ccccc1-c1ccc(C(=O)NC[C@H]2CCN2C(=O)[C@H](N)CO)c(NCCc2cccc(F)c2)n1` [N-{[(2R)-1-((2R)-2-amino-3-hydroxypropanoyl)azetidin-2-yl]methyl}(6-(2-cyanophenyl)-2-{[2-(3-fluorophenyl)ethyl]amino}(3-pyridyl))carboxamide], the IC50 was 83 nM. `C[C@@H](N)C(=O)N1CCCC[C@@H]1CNC(=O)c1ccc(-c2ccccc2C#N)nc1NCCc1cccc(F)c1` [N-{[(2R)-1-((2R)-2-aminopropanoyl)(2-piperidyl)]methyl}(6-(2-cyanophenyl)-2-{[2-(3-fluorophenyl)ethyl]amino}(3-pyridyl))carboxamide] showed an IC50 of 261 nM. For `C[C@@H](N)C(=O)N1CCC[C@@H]1CNC(=O)c1ccc(-c2ccccc2C#N)nc1NCCc1cccc(F)c1` [N-{[(2R)-1-((2R)-2-aminopropanoyl)pyrrolidin-2-yl]methyl}(6-(2-cyanophenyl)-2-{[2-(3-fluorophenyl)ethyl]amino}(3-pyridyl))carboxamide], the IC50 was 166 nM. Molecule `N#Cc1ccccc1-c1ccc(C(=O)NC[C@H]2CCCN2C(=O)[C@@H](N)CN)c(NCCc2cccc(F)c2)n1` [N-{[(2R)-1-((2S)-2,3-diaminopropanoyl)pyrrolidin-2-yl]methyl}(6-(2-cyanophenyl)-2-{[2-(3-fluorophenyl)ethyl]amino}(3-pyridyl))carboxamide] has an IC50 of 59 nM. With `N#Cc1ccccc1-c1ccc(C(=O)NC[C@H]2CCCCN2C(=O)[C@@H](N)CCCN)c(NCCc2cccc(F)c2)n1` [N-{[(2R)-1-((2S)-2,5-diaminopentanoyl)(2-piperidyl)]methyl}(6-(2-cyanophenyl)-2-{[2-(3-fluorophenyl)ethyl]amino}(3-pyridyl))carboxamide] the IC50 was 48 nM. With `N#Cc1ccccc1-c1ccc(C(=O)NC[C@H]2CCN2C(=O)[C@@H](N)CCCN)c(NCCc2cccc(F)c2)n1` [N-{[(2R)-1-((2S)-2,5-diaminopentanoyl)azetidin-2-yl]methyl}(6-(2-cyanophenyl)-2-{[2-(3-fluorophenyl)ethyl]amino}(3-pyridyl))carboxamide] the IC50 was 274 nM. `Cn1cc(-c2nc(NCCc3cccc(F)c3)c(C(=O)NC[C@H]3CCCN3C(=O)[C@@H](N)CCCN)cc2F)cn1` [N-{[(2R)-1-((2S)-2,5-diaminopentanoyl)pyrrolidin-2-yl]methyl}(5-fluoro-2-{[2-(3-fluorophenyl)ethyl]amino}-6-(1-methylpyrazol-4-yl)(3-pyridyl))carboxamide] was tested, and the IC50 was 78 nM. With `N#Cc1ccccc1-c1ccc(C(=O)NC[C@H]2CCCN2C(=O)[C@@H](N)CCCN)c(NCCc2cccc(F)c2)n1` [N-{[(2R)-1-((2S)-2,5-diaminopentanoyl)pyrrolidin-2-yl]methyl}(6-(2-cyanophenyl)-2-{[2-(3-fluorophenyl)ethyl]amino}(3-pyridyl))carboxamide] the IC50 was 52 nM. For `N#Cc1ccccc1-c1ccc(C(=O)NC[C@H]2CCN2C(=O)[C@@H](N)CO)c(NCCc2cccc(F)c2)n1` [N-{[(2R)-1-((2S)-2-amino-3-hydroxypropanoyl)azetidin-2-yl]methyl}(6-(2-cyanophenyl)-2-{[2-(3-fluorophenyl)ethyl]amino}(3-pyridyl))carboxamide], the IC50 was 88 nM. Molecule `Cn1cc(-c2nc(NCCc3cccc(F)c3)c(C(=O)NC[C@H]3CCCN3C(=O)[C@@H](N)CO)cc2F)cn1` [N-{[(2R)-1-((2S)-2-amino-3-hydroxypropanoyl)pyrrolidin-2-yl]methyl}(5-fluoro-2-{[2-(3-fluorophenyl)ethyl]amino}-6-(1-methylpyrazol-4-yl)(3-pyridyl))carboxamide] has an IC50 of 72 nM. `N[C@@H](CO)C(=O)N1CCCC1CNC(=O)c1cc(F)c(-c2cc[nH]n2)nc1NCCc1cccc(F)c1` (stereo partly drawn) [N-{[(2R)-1-((2S)-2-amino-3-hydroxypropanoyl)pyrrolidin-2-yl]methyl}(5-fluoro-2-{[2-(3-fluorophenyl)ethyl]amino}-6-pyrazol-3-yl(3-pyridyl))carboxamide] was tested, and the IC50 was 269 nM. Work on `N[C@@H](CO)C(=O)N1CCC[C@@H]1CNC(=O)c1cc(F)c(-c2cn[nH]c2)nc1NCCc1cccc(F)c1` [N-{[(2R)-1-((2S)-2-amino-3-hydroxypropanoyl)pyrrolidin-2-yl]methyl}(5-fluoro-2-{[2-(3-fluorophenyl)ethyl]amino}-6-pyrazol-4-yl(3-pyridyl))carboxamide] yielded an IC50 of 59 nM. In the case of `N#Cc1ccccc1-c1ccc(C(=O)NC[C@H]2CCCN2C(=O)[C@@H](N)CO)c(NCCc2cccc(F)c2)n1` [N-{[(2R)-1-((2S)-2-amino-3-hydroxypropanoyl)pyrrolidin-2-yl]methyl}(6-(2-cyanophenyl)-2-{[2-(3-fluorophenyl)ethyl]amino}(3-pyridyl))carboxamide], the IC50 is reported as 173 nM. Molecule `COC[C@H](N)C(=O)N1CCC[C@@H]1CNC(=O)c1ccc(-c2ccccc2C#N)nc1NCCc1cccc(F)c1` [N-{[(2R)-1-((2S)-2-amino-3-methoxypropanoyl)pyrrolidin-2-yl]methyl}(6-(2-cyanophenyl)-2-{[2-(3-fluorophenyl)ethyl]amino}(3-pyridyl))carboxamide] has an IC50 of 193 nM. `C[C@H](N)C(=O)N1CCCC[C@@H]1CNC(=O)c1ccc(-c2ccccc2C#N)nc1NCCc1cccc(F)c1` [N-{[(2R)-1-((2S)-2-aminopropanoyl)(2-piperidyl)]methyl}(6-(2-cyanophenyl)-2-{[2-(3-fluorophenyl)ethyl]amino}(3-pyridyl))carboxamide] was tested, and the IC50 was 52 nM. `C[C@H](N)C(=O)N1CCC[C@@H]1CNC(=O)c1cc(F)c(-c2cnn(C)c2)nc1NCCc1cccc(F)c1` [N-{[(2R)-1-((2S)-2-aminopropanoyl)pyrrolidin-2-yl]methyl}(5-fluoro-2-{[2-(3-fluorophenyl)ethyl]amino}-6-(1-methylpyrazol-4-yl)(3-pyridyl))carboxamide] gave an IC50 of 99 nM. For `C[C@H](N)C(=O)N1CCCC1CNC(=O)c1cc(F)c(-c2cc[nH]n2)nc1NCCc1cccc(F)c1` (stereo partly drawn) [N-{[(2R)-1-((2S)-2-aminopropanoyl)pyrrolidin-2-yl]methyl}(5-fluoro-2-{[2-(3-fluorophenyl)ethyl]amino}-6-pyrazol-3-yl(3-pyridyl))carboxamide], the IC50 was 314 nM.
